Test results: patent publication US8222262B2, “Indazolyl derivatives useful as potassium channel modulating agents” (Neurosearch A/S, priority 2006, dated 2012)

How the values were obtained:
hSK3 channels = target: T1, hSK3 channels (Homo sapiens, UniProt Q9UGI6); assay: Whole-cell patch-clamp recording of ionic current through SK channels (subtype 3) in HEK293 cells expressing hSK3; type: cell-based; conditions: baseline current at -75 mV, free Ca2+ 0.3-0.4 μM, room temperature
T1 construct: expressed in transfected cells; host or cells: HEK293
Procedure: The ionic current through small-conductance Ca^2+-activated K^+ channels (SK channels, subtype 3) is recorded using the whole-cell configuration of the patch-clamp technique.
HEK293 tissue culture cells expressing hSK3 channels were grown in DMEM (Dulbecco's Modified Eagle Medium) supplemented with 10% FCS (foetal calf serum) at 37° C. in 5% CO2. At 60-80% confluency, cells were harvested by trypsin treatment and seeded on cover slips.
Experiments are carried out a patch-clamp set-up. Cells plated on coverslips are placed in a 15 μl perfusion chamber (flowrate ˜1 ml/min) mounted on an inverted microscope placed on a vibration-free table in a grounded Faraday cage. All experiments are performed at room temperature (20-22° C.). […] Data are stored directly on the hard-disk and analysed by IGOR software (Wavemetrics, Lake Oswega, Oreg., USA).
The whole-cell configuration of the patch-clamp technique is applied. […] Cell capacitance is electronically compensated and the resistance between the pipette and the cell interior (the series resistance, Rs) is measured and compensated for. […]
The intracellular (pipette) solution contained: 154 mM KCl, 10 mM HEPES, 10 mM EGTA. Concentrations of CaCl2 and MgCl2 needed to obtain the desired free concentrations of Ca^2+ (0.3-0.4 μM, Mg^2+ always 1 mM) were calculated by EqCal software (Cambridge, UK) and added. […]

SMILES	melting point	SC100 (Stimulating Concentration required for increasing the baseline current by 100%) (hSK3 channels)
Cc1cc(Nc2ccc(Cl)cc2)nc(-n2cc3ccccc3n2)n1 [Compound A1, (4-Chloro-phenyl)-(2-indazol-2-yl-6-methyl-pyrimidin-4-yl)-amine]	224.7 to 226.7 °C	0.08 µM
c1ccc2c(c1)cnn2-c1nc(NC2CCCCC2)c2ccccc2n1 [Compound A3, Cyclohexyl-(2-indazol-1-yl-quinazolin-4-yl)-amine]	278.1 to 281.4 °C	
Clc1ccc(Nc2cncc(-n3cc4ccccc4n3)n2)cc1 [Compound D1, (4-Chloro-phenyl)-(6-indazol-2-yl-pyrazin-2-yl)-amine]	249 to 252 °C	
